Reference: the supplement of paper PMC10307832

What was measured:
Test in all cases: relative viability (nuclei count vs DMSO), 5 days (fraction); higher = more cells survive
NCI-H1993 = test system: NCI-H1993
How it was run: (§1)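 Medians of duplicate plates are given as relative viability. That measure is the nuclei count in treated wells divided by the count in vehicle wells. Counts were taken on 4× images of lung cancer cell lines in 1536-well plates, 5 days after pin-tool dosing the day after seeding with one drug alone or a fixed anchor-drug dose plus five library-drug doses (not always all listed) in √10 steps.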

NCI-H650 = test system: NCI-H650
How it was run: as §1

BEN = test system: BEN
How it was run: as §1

LU99A = test system: LU99A
How it was run: as §1

NCI-H2347 = test system: NCI-H2347
How it was run: as §1

ChaGo-K-1 = test system: ChaGo-K-1
How it was run: as §1

NCI-H1793 = test system: NCI-H1793
How it was run: as §1

NCI-H441 = test system: NCI-H441
How it was run: as §1

NCI-H2009 = test system: NCI-H2009
How it was run: as §1

LXF-289 = test system: LXF-289
How it was run: as §1

CAL-12T = test system: CAL-12T
How it was run: as §1

COR-L 105 = settings: first compound 0.001 µM
How it was run: as §1

Cc1cn(-c2cc(NC(=O)c3ccc(C)c(Nc4nccc(-c5cccnc5)n4)c3)cc(C(F)(F)F)c2)cn1 [Nilotinib] + Nc1nc2[nH]cc(CCc3ccc(C(=O)N[C@@H](CCC(=O)O)C(=O)O)cc3)c2c(=O)[nH]1 [Pemetrexed] (partner 0.2 µM)
relative viability (NCI-H1993; first compound 0.001 µM): 0.574 | relative viability (NCI-H1993; first compound 0.003162 µM): 0.685 | relative viability (NCI-H1993; first compound 0.01 µM): 0.649 | relative viability (NCI-H1993; first compound 0.03162 µM): 0.589 | relative viability (NCI-H1993; first compound 0.1 µM): 0.367 | relative viability (NCI-H650; first compound 0.001 µM): 0.887 | relative viability (NCI-H650; first compound 0.003162 µM): 0.86 | relative viability (NCI-H650; first compound 0.01 µM): 1.12 | relative viability (NCI-H650; first compound 0.03162 µM): 0.914 | relative viability (NCI-H650; first compound 0.1 µM): 0.746 | relative viability (BEN; first compound 0.001 µM): 0.868 | relative viability (BEN; first compound 0.003162 µM): 0.715 | relative viability (BEN; first compound 0.01 µM): 0.614 | relative viability (BEN; first compound 0.03162 µM): 0.772 | relative viability (BEN; first compound 0.1 µM): 0.469 | relative viability (LU99A; first compound 0.001 µM): 0.158 | relative viability (LU99A; first compound 0.003162 µM): 0.202 | relative viability (LU99A; first compound 0.01 µM): 0.177 | relative viability (LU99A; first compound 0.03162 µM): 0.225 | relative viability (LU99A; first compound 0.1 µM): 0.155 | relative viability (NCI-H2347; first compound 0.001 µM): 0.401 | relative viability (NCI-H2347; first compound 0.003162 µM): 0.384 | relative viability (NCI-H2347; first compound 0.01 µM): 0.435 | relative viability (NCI-H2347; first compound 0.03162 µM): 0.517 | relative viability (NCI-H2347; first compound 0.1 µM): 0.418 | relative viability (ChaGo-K-1; first compound 0.001 µM): 0.27 | relative viability (ChaGo-K-1; first compound 0.003162 µM): 0.244 | relative viability (ChaGo-K-1; first compound 0.01 µM): 0.228 | relative viability (ChaGo-K-1; first compound 0.03162 µM): 0.229 | relative viability (ChaGo-K-1; first compound 0.1 µM): 0.215 | relative viability (NCI-H1793; first compound 0.001 µM): 0.996 | relative viability (NCI-H1793; first compound 0.003162 µM): 0.965 | relative viability (NCI-H1793; first compound 0.01 µM): 1.07 | relative viability (NCI-H1793; first compound 0.03162 µM): 0.903 | relative viability (NCI-H1793; first compound 0.1 µM): 0.359 | relative viability (NCI-H441; first compound 0.001 µM): 0.261 | relative viability (NCI-H441; first compound 0.003162 µM): 0.26 | relative viability (NCI-H441; first compound 0.01 µM): 0.225 | relative viability (NCI-H441; first compound 0.03162 µM): 0.229 | relative viability (NCI-H441; first compound 0.1 µM): 0.186 | relative viability (NCI-H2009; first compound 0.001 µM): 0.926 | relative viability (NCI-H2009; first compound 0.003162 µM): 0.964 | relative viability (NCI-H2009; first compound 0.01 µM): 0.919 | relative viability (NCI-H2009; first compound 0.03162 µM): 1.06 | relative viability (NCI-H2009; first compound 0.1 µM): 0.989 | relative viability (LXF-289; first compound 0.001 µM): 0.836 | relative viability (LXF-289; first compound 0.003162 µM): 1.07 | relative viability (LXF-289; first compound 0.01 µM): 1.01 | relative viability (LXF-289; first compound 0.03162 µM): 0.878 | relative viability (LXF-289; first compound 0.1 µM): 0.519 | relative viability (CAL-12T; first compound 0.001 µM): 0.977 | relative viability (CAL-12T; first compound 0.003162 µM): 1.48 | relative viability (CAL-12T; first compound 0.01 µM): 1.34 | relative viability (CAL-12T; first compound 0.03162 µM): 0.992 | relative viability (CAL-12T; first compound 0.1 µM): 1.22 | relative viability (COR-L 105): 0.975
